{"source": "patent US10145848B2", "about": "“Small-molecule hydrophobic tagging of fusion proteins and induced degradation of same” (YALE UNIVERSITY, priority 2010, dated 2018)", "assay_type_in_all_cases": "cell-based", "key": {"[1]": {"target": "T1, luciferase-HaloTag fusion protein (Rhodococcus rhodochrous, UniProt P0A3G2, C176G/H272F/K175M/Y273L)", "T1 construct": "The HaloTag protein was obtained from pHT2 vector (Promega); luciferase (from pGL3-Basic); expressed in transfected cells", "assay": "Luciferase assay in HEK 293T cells expressing luciferase-HaloTag", "details": "1 μM, 24 hours", "experimental": "(a) Chemical structures of the representative HaloTag Ligands: HyT5, HyT12, HyT13, HyT16, HyT21 and HyT22. (b) HEK 293T cells expressing HA-HaloTag-luciferase were treated with indicated compounds at 1 μM for 24 hours, at which point luciferase assays were performed.\nTen thousand stable HEK 293T cells infected with HA-luciferase-HaloTag were plated into each well in a 96-well plate. The next day, indicated HyT compounds were added in triplicate and the cells were cultured for another 24 hours. The cells were washed once with cold PBS and lysed in Passive Lysis Buffer (Promega). The luciferase activity was performed by Steady-Glo Luciferase Assay System (Promega) on a Wallac Victor 2 Plate Reader (Perkin Elmer) and the luciferase activity was normalized by protein concentration, as determined by the Bradford assay.\nThe inventors designed 21 structurally distinct scaffolds as the basis for our hydrophobic Tags (HyTs), and synthesized and tested 30 compounds across these scaffolds composed of hydrophobic moieties linked to the HaloTag haloalkane reactive linker (Table 1, FIG. 5). […]"}, "[2]": {"target": "T2, HA-EGFP-HaloTag fusion protein (Rhodococcus rhodochrous, UniProt P0A3G2, C176G/H272F/K175M/Y273L)", "T2 construct": "The HaloTag protein was obtained from pHT2 vector (Promega); expressed in transfected cells", "assay": "Immunoblotting of HA-EGFP-HaloTag in Flp-In 293 cells", "details": "10 μM pretreatment 1 hour, then 1 μM HyT13, 6 hours", "experimental": "Flp-In 293 cells expressing HA-EGFP-HaloTag were treated with indicated concentrations of HyT13 for 24 hours. The lysates were probed with anti-HA and anti-β-actin antibodies, with β-actin serving as a loading control. Shown is quantification of three separate experiments, with error bars representing SEM.\nFlp-In 293 cells expressing HA-EGFP-HaloTag cells were treated for the indicated times with 1 μM HyT13 and the lysates were probed with anti-HA and anti-β-actin antibodies. The rightmost sample was treated with HyT13 for 24 hours, after which HyT13-free media was provided for 24 hours. Shown is quantification of three separate experiments, with error bars representing SEM.\nThe indicated cells were washed twice with cold PBS and the cells were lysed in lysis buffer (1×PBS, 1% NP-40, 1 mM EDTA, 40 mM HEPES) with protease inhibitors. The lysates were cleared by centrifugation at 10,000 g for 5 min. The total protein concentration was determined by Bradford assay and 50 μg of protein was loaded onto an 8% Bis-Tris gel. To solubilize polyubiquitinated and aggregated proteins upon proteasome inhibition^42 samples generated for FIG. 12d were lysed with a SDS lysis buffer (1×PBS, 1% NP-40, 1% SDS, 1% sodium deoxycholate, 1 mM EDTA, 40 mM HEPES) with protease inhibitors. The blots were processed by standard procedures with indicated antibodies, and the band intensities were quantified by ImageJ.\nAs the luciferase assay relied on the loss-of-activity of the luciferase-HaloTag fusion protein, we wanted to determine whether the decrease in luciferase activity resulted from the degradation of the entire fusion protein or perhaps simply inhibition of luciferase activity. We generated a stable Flp-In 293 cell line with a single integration site containing HA-EGFP-HaloTag fusion protein, and employed this cell line to perform kinetic studies with HyT13. […] Consistent with our previous observations, treatment of these cells with 1 μM of HyT13 for 24 hours reduced the mean fluorescence intensity of cells almost 7-fold. Together, these findings provide the first experimental evidence that hydrophobic tagging represents a viable strategy for the control of protein levels."}, "[3]": {"system": "HEK293 or HeLa cells", "assay": "Cell viability with Resazurin (alamarBlue)", "details": "indicated concentration, 24 hours", "experimental": "HEK293 or HeLa cells were treated with indicated concentrations of HyT13 for 24 hours. The oxidation-reduction indicator Resazurin (alamarBlue, Invitrogen) was employed to determine cell viability."}}, "note": "Residues, ends and D or L forms follow the SMILES beside them. *: point of attachment. Cbz = O=C(OCc1ccccc1)*"}
{"smiles": "NCCOCCOCCOCCn1cc(CCC(=O)NCCOCCOCCOCC(=O)NCCOCCOCCCCCCCl)nn1", "note": "[HyT5, 3-(1-(2-(2-(2-(2-aminoethoxy)ethoxy)ethoxy)ethyl)-1H-1,2,3-triazol-4-yl)-N-(24-chloro-11-oxo-3,6,9,15,18-pentaoxa-12-azatetracosyl)propanamide]", "values": [{"measurement": "luciferase activity", "setting": "[1]", "value": "did not decrease the luciferase activity"}]}
{"smiles": "CC(C)C[C@@H](C=O)NC(=O)[C@H](CC(C)C)NC(=O)[C@H](CC(C)C)NC(=O)OCc1ccccc1", "note": "[MG132, reference compound] (Cbz-Leu-Leu-Leu-aldehyde)", "values": [{"measurement": "effect of proteasome inhibitor on HyT13 mediated degradation", "setting": "[2]", "value": "blocked HyT13 mediated degradation"}]}
{"smiles": "CC(=O)NC(CCc1ccccc1)C(=O)NC(CC(C)C)C(=O)NC(Cc1ccccc1)C(=O)NC(CC(C)C)C(=O)C1(C)CO1", "note": "(stereo not shown) [YU101, reference compound]", "values": [{"measurement": "effect of proteasome inhibitor on HyT13 mediated degradation", "setting": "[2]", "value": "blocked HyT13 mediated degradation"}, {"measurement": "cellular toxicity (positive control)", "setting": "[3]", "value": "toxic to cells"}]}
